Assay results as given in patent publication US6737383B1, “Herbicidal oxadiazolidines” (priority 1999, dated 2004).

Assays:
duck salad = experiment: Test B flood test duck salad; assay type: in vivo, Heteranthera limosa
How it was run: (§1)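 Flood test on plants grown to the 2-leaf stage; treated plants kept in greenhouse twelve to sixteen days, then visually rated against controls on a 0 (no effect) to 10 (complete control) scale.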

rape = experiment: Test B pre/postemergence rape; assay type: in vivo, Brassica napus
How it was run: (§2)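 Herbicidal effect was estimated by eye on a ten-point control scale after plants spent twelve to sixteen days in a greenhouse following soil or foliar treatment. Foliar sprays targeted plants at one to four leaves; all doses were formulated in a non-phytotoxic solvent with surfactant.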

wheat = experiment: Test B pre/postemergence wheat; assay type: in vivo, Triticum aestivum
How it was run: as §2

blackgrass = experiment: Test B pre/postemergence blackgrass; assay type: in vivo, Alopecurus myosuroides
How it was run: as §2

sugar beet = experiment: Test B pre/postemergence sugar beet; assay type: in vivo, Beta vulgaris
How it was run: as §2

purple nutsedge = experiment: Test B pre/postemergence purple nutsedge; assay type: in vivo, Cyperus rotundus
How it was run: as §2

pigweed = experiment: Test B pre/postemergence pigweed; assay type: in vivo, Amaranthus retroflexus
How it was run: as §2

bamyardgrass = experiment: Test B flood test barnyardgrass; assay type: in vivo, Echinochloa crus-galli
How it was run: as §1

smallflower flatsedge = experiment: Test B flood test smallflower flatsedge; assay type: in vivo, Cyperus difformis
How it was run: as §1

velvetleaf = experiment: Test B pre/postemergence velvetleaf; assay type: in vivo, Abutilon theophrasti
How it was run: as §2

cocklebur = experiment: Test B pre/postemergence cocklebur; assay type: in vivo, Xanthium strumarium
How it was run: as §2

giant foxtail = experiment: Test B pre/postemergence giant foxtail; assay type: in vivo, Setaria faberii
How it was run: as §2

rice = experiment: Test B flood test rice; assay type: in vivo, Oryza sativa
How it was run: as §1

morningglory = experiment: Test B pre/postemergence morningglory; assay type: in vivo, Ipomoea hederacea
How it was run: as §2

wild oat = experiment: Test B pre/postemergence wild oat; assay type: in vivo, Avena fatua
How it was run: as §2

soybean = experiment: Test B pre/postemergence soybean; assay type: in vivo, Glycine max
How it was run: as §2

[1] = Pre-emergence, Rate 1000 g/ha, scale 0 to 10 (0 no effect, 10 complete control)
[2] = Rate 125 g/ha, under heading Pre-emergence, flood test species, visual evaluation after twelve to sixteen days
[3] = Rate 250 g/ha, Pre-emergence (flood test species), scale 0 to 10, 0 is no effect, 10 is complete control
[4] = Rate 500 g/ha, Pre-emergence section of Table B, 0 to 10 scale (0 no effect, 10 complete control)
[5] = Postemergence, Rate 125 g/ha, scale of 0 to 10 where 0 is no effect and 10 is complete control
[6] = Postemergence, Rate 1000 g/ha, scale 0 to 10 (0 no effect, 10 complete control)
[7] = Preemergence, Rate 125 g/ha, scale of 0 to 10 where 0 is no effect and 10 is complete control
[8] = Preemergence, Rate 250 g/ha, scale 0 to 10 (0 no effect, 10 complete control)
[9] = Preemergence, Rate 500 g/ha, scale of 0 to 10 where 0 is no effect and 10 is complete control
[10] = Rate 500 g/ha, Postemergence, scale 0 to 10, 0 is no effect, 10 is complete control
[11] = Rate 1000 g/ha, Preemergence, scale 0 to 10 (0 no effect, 10 complete control)
[12] = Postemergence, Rate 250 g/ha, scale of 0 to 10, 0 is no effect, 10 is complete control

In the case of `COP(=O)(CCn1c(=O)on(C(=O)N(c2ccc(F)cc2)C(C)C)c1=O)OC` [Compound 662], the “Ducksalad plant response rating” value (duck salad; [1]) is reported as 0, the “Ducksalad plant response rating (0 to 10 scale, 0 is no effect, 10 is complete control)” value (duck salad; [2]) is reported as 0 and the “Ducksalad plant response rating” value (duck salad; [3]) is reported as 0. The “Ducksalad plant response rating” value (duck salad; [4]) was 0, the “Rape plant response rating” value (rape; [5]) was 0 and the “Rape plant response rating” value (rape; [6]) was 0. For the same molecule, the “Rape plant response rating” value (rape; [7]) was 0, the “Plant response rating, Rape” value (rape; [8]) was 0 and the “Plant response rating, Rape” value (rape; [9]) was 0. For the same molecule, the “Rape plant response rating” value (rape; [10]) was 0, the “Plant response rating, Rape” value (rape; [11]) was 4 and the “Wheat plant response rating” value (wheat; [5]) was 0. For the same molecule, the “Wheat plant response rating” value (wheat; [6]) was 0, the “Wheat plant response rating” value (wheat; [7]) was 0 and the “Plant response rating, Wheat” value (wheat; [8]) was 0. The “Plant response rating, Wheat” value (wheat; [9]) was 0, the “Wheat plant response rating” value (wheat; [10]) was 0 and the “Plant response rating, Wheat” value (wheat; [11]) was 5. For the same molecule, the “Blackgrass plant response rating” value (blackgrass; [5]) was 0, the “Blackgrass plant response rating” value (blackgrass; [12]) was 0 and the “Blackgrass plant response rating” value (blackgrass; [6]) was 6. The “Blackgrass plant response rating” value (blackgrass; [7]) was 3, the “Plant response rating, Blackgrass” value (blackgrass; [8]) was 4 and the “Plant response rating, Blackgrass” value (blackgrass; [9]) was 9. The “Blackgrass plant response rating” value (blackgrass; [10]) was 3, the “Plant response rating, Blackgrass” value (blackgrass; [11]) was 9 and the “Sugarbeets plant response rating” value (sugar beet; [5]) was 0. The “Sugarbeets plant response rating” value (sugar beet; [6]) was 0, the “Sugarbeets plant response rating” value (sugar beet; [7]) was 0 and the “Plant response rating, Sugarbeets” value (sugar beet; [8]) was 0. For the same molecule, the “Plant response rating, Sugarbeets” value (sugar beet; [9]) was 0, the “Sugarbeets plant response rating” value (sugar beet; [10]) was 0 and the “Plant response rating, Sugarbeets” value (sugar beet; [11]) was 0. The “Nutsedge plant response rating” value (purple nutsedge; [5]) was 0, the “Nutsedge plant response rating” value (purple nutsedge; [7]) was 0 and the “Plant response rating, Nutsedge” value (purple nutsedge; [8]) was 4. The “Plant response rating, Nutsedge” value (purple nutsedge; [9]) was 7, the “Nutsedge plant response rating” value (purple nutsedge; [10]) was 5 and the “Plant response rating, Nutsedge” value (purple nutsedge; [11]) was 10. The “Redroot pigweed plant response rating” value (pigweed; [5]) was 0, the “Redroot pigweed plant response rating” value (pigweed; [6]) was 0 and the “Redroot pigweed plant response rating” value (pigweed; [7]) was 0. The “Plant response rating, Redroot pigweed” value (pigweed; [8]) was 3, the “Plant response rating, Redroot pigweed” value (pigweed; [9]) was 7 and the “Redroot pigweed plant response rating” value (pigweed; [10]) was 0. For the same molecule, the “Plant response rating, Redroot pigweed” value (pigweed; [11]) was 7, the “Barnyardgrass plant response rating” value (bamyardgrass; [1]) was 0 and the “Barnyardgrass plant response rating (0 to 10 scale, 0 is no effect, 10 is complete control)” value (bamyardgrass; [2]) was 0. The “Barnyardgrass plant response rating” value (bamyardgrass; [3]) was 0, the “Barnyardgrass plant response rating” value (bamyardgrass; [4]) was 0 and the “S. Flatsedge plant response rating” value (smallflower flatsedge; [1]) was 0. For the same molecule, the “S. Flatsedge plant response rating (0 to 10 scale, 0 is no effect, 10 is complete control)” value (smallflower flatsedge; [2]) was 0, the “S. Flatsedge plant response rating” value (smallflower flatsedge; [3]) was 0 and the “S. Flatsedge plant response rating” value (smallflower flatsedge; [4]) was 0. The “Velvetleaf plant response rating” value (velvetleaf; [5]) was 0, the “Velvetleaf plant response rating” value (velvetleaf; [6]) was 0 and the “Velvetleaf plant response rating” value (velvetleaf; [7]) was 0. For the same molecule, the “Plant response rating, Velvetleaf” value (velvetleaf; [8]) was 0, the “Plant response rating, Velvetleaf” value (velvetleaf; [9]) was 2 and the “Velvetleaf plant response rating” value (velvetleaf; [10]) was 0. For the same molecule, the “Plant response rating, Velvetleaf” value (velvetleaf; [11]) was 2, the “Cocklebur plant response rating” value (cocklebur; [5]) was 0 and the “Cocklebur plant response rating” value (cocklebur; [12]) was 0. For the same molecule, the “Cocklebur plant response rating” value (cocklebur; [6]) was 5, the “Cocklebur plant response rating” value (cocklebur; [7]) was 0 and the “Plant response rating, Cocklebur” value (cocklebur; [8]) was 0. For the same molecule, the “Plant response rating, Cocklebur” value (cocklebur; [9]) was 2, the “Cocklebur plant response rating” value (cocklebur; [10]) was 0 and the “Plant response rating, Cocklebur” value (cocklebur; [11]) was 9. The “Giant foxtail plant response rating” value (giant foxtail; [5]) was 0, the “Giant foxtail plant response rating” value (giant foxtail; [12]) was 2 and the “Giant foxtail plant response rating” value (giant foxtail; [6]) was 8. For the same molecule, the “Giant foxtail plant response rating” value (giant foxtail; [7]) was 7, the “Plant response rating, Giant foxtail” value (giant foxtail; [8]) was 9 and the “Plant response rating, Giant foxtail” value (giant foxtail; [9]) was 10. For the same molecule, the “Giant foxtail plant response rating” value (giant foxtail; [10]) was 5, the “Plant response rating, Giant foxtail” value (giant foxtail; [11]) was 10 and the “Rice plant response rating” value (rice; [1]) was 0. The “Rice plant response rating (0 to 10 scale, 0 is no effect, 10 is complete control)” value (rice; [2]) was 0, the “Rice plant response rating” value (rice; [3]) was 0 and the “Rice plant response rating” value (rice; [4]) was 0. The “Morningglory plant response rating” value (morningglory; [5]) was 7, the “Morningglory plant response rating” value (morningglory; [12]) was 9 and the “Morningglory plant response rating” value (morningglory; [6]) was 7. For the same molecule, the “Morningglory plant response rating” value (morningglory; [7]) was 0, the “Plant response rating, Morningglory” value (morningglory; [8]) was 0 and the “Plant response rating, Morningglory” value (morningglory; [9]) was 1. The “Morningglory plant response rating” value (morningglory; [10]) was 7, the “Plant response rating, Morningglory” value (morningglory; [11]) was 3 and the “Wild oats plant response rating” value (wild oat; [5]) was 1. The “Wild oats plant response rating” value (wild oat; [6]) was 1, the “Wild oats plant response rating” value (wild oat; [7]) was 0 and the “Plant response rating, Wild oats” value (wild oat; [8]) was 0. For the same molecule, the “Plant response rating, Wild oats” value (wild oat; [9]) was 9, the “Wild oats plant response rating” value (wild oat; [10]) was 1 and the “Plant response rating, Wild oats” value (wild oat; [11]) was 9. The “Soybean plant response rating” value (soybean; [5]) was 1, the “Soybean plant response rating” value (soybean; [7]) was 0 and the “Plant response rating, Soybean” value (soybean; [8]) was 0. The “Plant response rating, Soybean” value (soybean; [9]) was 0, the “Soybean plant response rating” value (soybean; [10]) was 2 and the “Plant response rating, Soybean” value (soybean; [11]) was 3.
